Results: PubChem BioAssay (NCI)
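Tested at 5 concentrations; 48 h exposure; 96-well plates; endpoints linearly interpolated, else capped at highest concentration. TGI: total growth inhibition.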

What was measured:
Experiment in all cases: inhibition of tumour cell growth, NCI panel, 48 h
[1] = system: T-47D breast
[2] = system: MCF7 breast
[3] = system: OVCAR-8 ovarian
[4] = system: PC-3 prostate
[5] = system: OVCAR-5 ovarian
[6] = system: SNB-19 CNS
[7] = system: HOP-92 NSCLC
[8] = system: HL-60(TB) leukemia
[9] = system: MDA-MB-231 breast
[10] = system: MALME-3M melanoma
[11] = system: KM12 colon
[12] = system: SK-MEL-2 melanoma
[13] = system: SNB-75 CNS
[14] = system: LOX IMVI melanoma
[15] = system: TK-10 renal
[16] = system: SW-620 colon
[17] = system: A549 NSCLC
[18] = system: SF-539 CNS
[19] = system: RPMI-8226 leukemia
[20] = system: ACHN renal
[21] = system: UACC-62 melanoma
[22] = system: HOP-62 NSCLC
[23] = system: NCI-H522 lung
[24] = system: IGROV1 ovarian
[25] = system: HT29 colon
[26] = system: U251 CNS
[27] = system: SK-MEL-5 melanoma
[28] = system: UACC-257 melanoma
[29] = system: A498 renal
[30] = system: UO-31 renal
[31] = system: EKVX NSCLC
[32] = system: SK-MEL-28 melanoma
[33] = system: SF-268 CNS
[34] = system: OVCAR-3 ovarian
[35] = system: 786-0 renal
[36] = system: SF-295 CNS
[37] = system: NCI/ADR-RES ovarian
[38] = system: COLO 205 colon
[39] = system: NCI-H226 lung
[40] = system: NCI-H23 lung
[41] = system: MDA-MB-435
[42] = system: NCI-H460 lung
[43] = system: HCC-2998 colon
[44] = system: SN12C renal
[45] = system: MDA-N
[46] = system: K-562 leukemia
[47] = system: CCRF-CEM leukemia
[48] = system: DU-145 prostate
[49] = system: M14 melanoma
[50] = system: MOLT-4 leukemia
[51] = system: HCT-15 colon
[52] = system: HCT-116 colon
[53] = system: CAKI-1 renal
[54] = system: BT-549 breast
[55] = system: HS 578T breast
[56] = system: SK-OV-3 ovarian
[57] = system: RXF 393 renal
[58] = system: SR leukemia
[59] = system: OVCAR-4 ovarian

Measured: TGI

CNC(=O)CCCNC(=O)CCCC(=O)OC
not listed: [57] | [58] | [59]
> 100 µM: all other assays above

C[C@H]1C[C@H]2[C@@H]3CCC4=CC(=O)C=C[C@]4(C)C3=CC[C@]2(C)[C@@]1(O)C(=O)CO
not listed: [16] | [18] | [34] | [54]
> 100 µM: all other assays above

O=c1n(-c2ccccc2)c(=O)n2c(-c3ccccc3)c(-c3ccccc3)n12
not listed: [1] | [19] | [23] | [33] | [41] | [48]
> 100 µM: all other assays above

O/N=C1/CCCc2nonc21
not listed: [23] | [29] | [54]
> 100 µM: all other assays above
